Reference: ChEMBL document CHEMBL5724914, “Linking interpersonal differences in gut microbiota composition and drug biotransformation activity” (2024)

Assay: The drug is tested on Z-008 corresponding to metagenome with ENA study accession number: PRJEB37062 and ENA sample accession number: ERS12561808 for biotransformation under anaerobic condition. The drug concentrations were measured over 9 timepoints collected between 0 and 24 hours of incubation by liquid-chromatography-coupled mass spectrometry (LC–MS)
Conditions: 2 µM
Further: call rule not given here.

SMILES | Bacterial Biotransformation
CN(C)C(=O)C(CCN1CCC(O)(c2ccc(Cl)cc2)CC1)(c1ccccc1)c1ccccc1 [LOPERAMIDE] | Compound NOT metabolized
Fc1ccc([C@@H]2CCNC[C@H]2COc2ccc3c(c2)OCO3)cc1 [PAROXETINE] | Compound NOT metabolized

Assay: (§1) The drug is tested on Z-016 corresponding to mouse gut metagenome with ENA study accession number: PRJEB37062 and ENA sample accession number: ERS12561815 for biotransformation under anaerobic condition. The drug concentrations were measured over 9 timepoints collected between 0 and 24 hours of incubation by liquid-chromatography-coupled mass spectrometry (LC–MS)
Conditions: 2 µM

SMILES | Bacterial Biotransformation
CN(C)C(=O)C(CCN1CCC(O)(c2ccc(Cl)cc2)CC1)(c1ccccc1)c1ccccc1 [LOPERAMIDE] | Compound metabolized
Fc1ccc([C@@H]2CCNC[C@H]2COc2ccc3c(c2)OCO3)cc1 [PAROXETINE] | Compound NOT metabolized

Assay: as §1, with “WLS-310” for “Z-016”, “human” for “mouse”, “ERS12561785” for “ERS12561815”
Conditions: 2 µM

SMILES | Bacterial Biotransformation
CN(C)C(=O)C(CCN1CCC(O)(c2ccc(Cl)cc2)CC1)(c1ccccc1)c1ccccc1 [LOPERAMIDE] | Compound metabolized
Fc1ccc([C@@H]2CCNC[C@H]2COc2ccc3c(c2)OCO3)cc1 [PAROXETINE] | Compound metabolized

Assay: as §1, with “WLS-220” for “Z-016”, “human” for “mouse”, “ERS12561769” for “ERS12561815”
Conditions: 2 µM

SMILES | Bacterial Biotransformation
CN(C)C(=O)C(CCN1CCC(O)(c2ccc(Cl)cc2)CC1)(c1ccccc1)c1ccccc1 [LOPERAMIDE] | Compound metabolized
Fc1ccc([C@@H]2CCNC[C@H]2COc2ccc3c(c2)OCO3)cc1 [PAROXETINE] | Compound metabolized

Assay: as §1, with “Z-019” for “Z-016”, “rat” for “mouse”, “ERS12561818” for “ERS12561815”
Conditions: 2 µM

SMILES | Bacterial Biotransformation
CN(C)C(=O)C(CCN1CCC(O)(c2ccc(Cl)cc2)CC1)(c1ccccc1)c1ccccc1 [LOPERAMIDE] | Compound NOT metabolized
Fc1ccc([C@@H]2CCNC[C@H]2COc2ccc3c(c2)OCO3)cc1 [PAROXETINE] | Compound NOT metabolized

Conditions: human gut metagenome, 24 h, 2 µM

SMILES | Bacterial Biotransformation
CN(C)C(=O)C(CCN1CCC(O)(c2ccc(Cl)cc2)CC1)(c1ccccc1)c1ccccc1 [LOPERAMIDE] | Compound metabolized
Fc1ccc([C@@H]2CCNC[C@H]2COc2ccc3c(c2)OCO3)cc1 [PAROXETINE] | Compound NOT metabolized

Assay: as §1, with “WLS-038” for “Z-016”, “human” for “mouse”, “ERS12561745” for “ERS12561815”
Conditions: 2 µM

SMILES | Bacterial Biotransformation
CN(C)C(=O)C(CCN1CCC(O)(c2ccc(Cl)cc2)CC1)(c1ccccc1)c1ccccc1 [LOPERAMIDE] | Compound metabolized
Fc1ccc([C@@H]2CCNC[C@H]2COc2ccc3c(c2)OCO3)cc1 [PAROXETINE] | Compound metabolized

Assay: as §1, with “WLS-073” for “Z-016”, “human” for “mouse”, “ERS12561749” for “ERS12561815”
Conditions: 2 µM

SMILES | Bacterial Biotransformation
CN(C)C(=O)C(CCN1CCC(O)(c2ccc(Cl)cc2)CC1)(c1ccccc1)c1ccccc1 [LOPERAMIDE] | Compound NOT metabolized
Fc1ccc([C@@H]2CCNC[C@H]2COc2ccc3c(c2)OCO3)cc1 [PAROXETINE] | Compound NOT metabolized

Conditions: human gut metagenome, 24 h, 2 µM
Remark: another data set of the same source

SMILES | Bacterial Biotransformation
CN(C)C(=O)C(CCN1CCC(O)(c2ccc(Cl)cc2)CC1)(c1ccccc1)c1ccccc1 [LOPERAMIDE] | Compound metabolized
Fc1ccc([C@@H]2CCNC[C@H]2COc2ccc3c(c2)OCO3)cc1 [PAROXETINE] | Compound NOT metabolized

Assay: as §1, with “Z-017” for “Z-016”, “ERS12561816” for “ERS12561815”
Conditions: 2 µM

SMILES | Bacterial Biotransformation
CN(C)C(=O)C(CCN1CCC(O)(c2ccc(Cl)cc2)CC1)(c1ccccc1)c1ccccc1 [LOPERAMIDE] | Compound NOT metabolized
Fc1ccc([C@@H]2CCNC[C@H]2COc2ccc3c(c2)OCO3)cc1 [PAROXETINE] | Compound NOT metabolized

Assay: as §1, with “Z-013” for “Z-016”, “rabbit” for “mouse”, “ERS12561813” for “ERS12561815”
Conditions: 2 µM

SMILES | Bacterial Biotransformation
CN(C)C(=O)C(CCN1CCC(O)(c2ccc(Cl)cc2)CC1)(c1ccccc1)c1ccccc1 [LOPERAMIDE] | Compound metabolized
Fc1ccc([C@@H]2CCNC[C@H]2COc2ccc3c(c2)OCO3)cc1 [PAROXETINE] | Compound NOT metabolized

Conditions: human gut metagenome, 24 h, 2 µM
Remark: another data set of the same source

SMILES | Bacterial Biotransformation
CN(C)C(=O)C(CCN1CCC(O)(c2ccc(Cl)cc2)CC1)(c1ccccc1)c1ccccc1 [LOPERAMIDE] | Compound metabolized
Fc1ccc([C@@H]2CCNC[C@H]2COc2ccc3c(c2)OCO3)cc1 [PAROXETINE] | Compound NOT metabolized

Conditions: human gut metagenome, 24 h, 2 µM
Remark: another data set of the same source

SMILES | Bacterial Biotransformation
CN(C)C(=O)C(CCN1CCC(O)(c2ccc(Cl)cc2)CC1)(c1ccccc1)c1ccccc1 [LOPERAMIDE] | Compound metabolized
Fc1ccc([C@@H]2CCNC[C@H]2COc2ccc3c(c2)OCO3)cc1 [PAROXETINE] | Compound metabolized

Conditions: human gut metagenome, 24 h, 2 µM
Remark: another data set of the same source

SMILES | Bacterial Biotransformation
CN(C)C(=O)C(CCN1CCC(O)(c2ccc(Cl)cc2)CC1)(c1ccccc1)c1ccccc1 [LOPERAMIDE] | Compound metabolized
Fc1ccc([C@@H]2CCNC[C@H]2COc2ccc3c(c2)OCO3)cc1 [PAROXETINE] | Compound NOT metabolized

Assay: as §1, with “Z-014” for “Z-016”, “rat” for “mouse”, “ERS12561814” for “ERS12561815”
Conditions: 2 µM

SMILES | Bacterial Biotransformation
CN(C)C(=O)C(CCN1CCC(O)(c2ccc(Cl)cc2)CC1)(c1ccccc1)c1ccccc1 [LOPERAMIDE] | Compound metabolized
Fc1ccc([C@@H]2CCNC[C@H]2COc2ccc3c(c2)OCO3)cc1 [PAROXETINE] | Compound NOT metabolized

Conditions: human gut metagenome, 24 h, 2 µM
Remark: another data set of the same source

SMILES | Bacterial Biotransformation
CN(C)C(=O)C(CCN1CCC(O)(c2ccc(Cl)cc2)CC1)(c1ccccc1)c1ccccc1 [LOPERAMIDE] | Compound metabolized
Fc1ccc([C@@H]2CCNC[C@H]2COc2ccc3c(c2)OCO3)cc1 [PAROXETINE] | Compound metabolized

Assay: as §1, with “WLS-007” for “Z-016”, “human” for “mouse”, “ERS12561742” for “ERS12561815”
Conditions: 2 µM

SMILES | Bacterial Biotransformation
CN(C)C(=O)C(CCN1CCC(O)(c2ccc(Cl)cc2)CC1)(c1ccccc1)c1ccccc1 [LOPERAMIDE] | Compound metabolized
Fc1ccc([C@@H]2CCNC[C@H]2COc2ccc3c(c2)OCO3)cc1 [PAROXETINE] | Compound NOT metabolized

Conditions: human gut metagenome, 24 h, 2 µM
Remark: another data set of the same source

SMILES | Bacterial Biotransformation
CN(C)C(=O)C(CCN1CCC(O)(c2ccc(Cl)cc2)CC1)(c1ccccc1)c1ccccc1 [LOPERAMIDE] | Compound metabolized
Fc1ccc([C@@H]2CCNC[C@H]2COc2ccc3c(c2)OCO3)cc1 [PAROXETINE] | Compound metabolized

Assay: as §1, with “WLS-086” for “Z-016”, “human” for “mouse”, “ERS12561752” for “ERS12561815”
Conditions: 2 µM

SMILES | Bacterial Biotransformation
CN(C)C(=O)C(CCN1CCC(O)(c2ccc(Cl)cc2)CC1)(c1ccccc1)c1ccccc1 [LOPERAMIDE] | Compound metabolized
Fc1ccc([C@@H]2CCNC[C@H]2COc2ccc3c(c2)OCO3)cc1 [PAROXETINE] | Compound metabolized

Conditions: human gut metagenome, 24 h, 2 µM
Remark: another data set of the same source

SMILES | Bacterial Biotransformation
CN(C)C(=O)C(CCN1CCC(O)(c2ccc(Cl)cc2)CC1)(c1ccccc1)c1ccccc1 [LOPERAMIDE] | Compound metabolized
Fc1ccc([C@@H]2CCNC[C@H]2COc2ccc3c(c2)OCO3)cc1 [PAROXETINE] | Compound metabolized
